How the values were obtained:
[1] = test system: Caco-2 human colon adenocarcinoma cells; assay: Cytotoxicity, LDH assay, Caco-2 cells; type: cell-based; settings: 24 h treatment; for IC50: Homo sapiens, Caco-2, 24 h
Procedure: (§1) Cytotoxic activity was tested on human cancer and normal cells, grouped in three panels, namely: prostate, skin and gastrointestinal. The prostate panel consisted of prostate cancer cell lines Du145 (ATCC HTB-81) and PC3 (ATCC CRL-1435), and prostate epithelial cells PNT-2 (ECACC 95012613). Melanoma cell lines A375 (ATCC CRL-1619) and HTB140 (ATCC Hs 294T) together with skin keratinocytes HaCaT (obtained as a kind gift of prof. Marta Michalik, Department of Cell Biology, Jagiellonian University, Kraków, Poland) were included into the skin panel. The gastrointestinal panel of cells comprised colon cancer cell lines Caco-2 (ATCC HTB-37) and HT29 (ATCC HTB-38). Du145 cells were grown in Modified Eagle’s Medium with low (1.0 g/L) glucose concentration, HT29, PC3 and PNT-2 cells in Dulbecco’s Modified Eagle’s Media: F12 HAM Nutrient Mixture, Caco-2 in Modified Eagle’s Medium with NEAA (no-essential amino acids) while melanoma cells and keratinocytes were maintained in Modified Eagle’s Medium with high (4.5 g/L) glucose concentration. The culture media (all supplied by Sigma-Aldrich Co.; St. Louis, MO, USA) contained antibiotics and 10% fetal bovine serum (FBS). All cultures were maintained at 37 °C, in a humidified, 5% CO2 containing, atmosphere.
(§2) The examined triterpenes were diluted in the culture media from freshly made stock solutions in MeOH (10 mg/mL) to the working concentrations (from 0 to 100 μg/mL).
(§3) Cell viability was determined as it was described previously. Cells suspended in the nutrient medium were transferred into 96-well microtiter plates (density 1.5 × 10^4 per well), and preincubated for 24 h (37 °C, 5% CO2). Then, the culture medium was replaced with the medium containing different concentrations of 1 or 2 (1–100 μg/mL). After 24 h of incubation, viability of the cells was determined using colorimetric lactate dehydrogenase (LDH) assay, in comparison to the controls to which corresponding aliquots of MeOH diluted with culture media were added. Cells grown in the medium without the tested compounds were used as control I (negative) and the positive control (control II) was obtained by incubation of the cells in the medium containing 1% Triton X-100. LDH released from the damaged cells into the cell culture medium was quantified by measuring the absorbance at 490 nm using Synergy II Biotek (BioTek Instruments, Winooski, VT, USA) microplate reader. Cytotoxicities of the examined compounds were calculated as follows: [(absorbance of the tested sample − absorbance of control I)/(absorbance of control II − absorbance of control I)] × 100. Results were means of three independent measurements (± SD). Doxorubicin (Ebewe Pharma GmbH., Unterach, Austria) was used as a reference cytostatic drug. The IC50 values were determined by plotting the percentage viability of the cells versus concentration and the adequate calculations made using AAT Bioquest website program (https://www.aatbio.com/tools/ic50-calculator, accessed on 29 October 2021).

[2] = Cytotoxicity, LDH assay, Caco-2 cells; type: cell-based, human; settings: human, Caco-2, 24 h, mean ± SD of three, read-out: Cell viability Caco-2
Procedure: as §1, §2, §3

[3] = Cytotoxicity, LDH assay, PC3 cells; type: cell-based, human; settings: human, PC3 prostate adenocarcinoma cells, 24 h, mean ± SD of three, read-out: Cell viability PC3

Structure (SMILES) | IC50 ([1]; 5–100 μg/mL) | viability at 24 h, 5 μg/mL [2] | viability at 24 h, 10 μg/mL [2] | viability at 24 h, 20 μg/mL [2] | viability at 24 h, 30 μg/mL [2] | viability at 24 h, 40 μg/mL [2] | viability at 24 h, 50 μg/mL [2] | viability at 24 h, 100 μg/mL [2] | viability at 24 h, 5 μg/mL [3] | viability at 24 h, 10 μg/mL [3] | viability at 24 h, 20 μg/mL [3] | viability at 24 h, 30 μg/mL [3] | viability at 24 h, 40 μg/mL [3] | viability at 24 h, 50 μg/mL [3] | viability at 24 h, 100 μg/mL [3] | IC50 Caco-2 ([1]; 5–100 μg/mL) | IC50 ([1]; value in brackets, footnote d)
CC(=O)OC1CC2(C)C(C(OC(C)=O)CC3(C)C2C(O)C=C2C4C(C)C(C)(O)CC(OC(C)=O)C4(C)CCC23C)C(C)(C)C1O (stereo not drawn) [Compound 2, 2α,6β,22α-triacetoxy-urs-12-ene-3α,11α,20β-triol] | > 50 µg/mL | 94.7 ± 1.42% | 88.4 ± 0.92% | 82 ± 1.69% | 74.7 ± 1.19% | 65.8 ± 1.25% | 61.1 ± 2.37% | 49.6 ± 1.49% | 96.6 ± 1.35% | 94.1 ± 1.24% | 87.9 ± 1.54% | 79 ± 1.1% | 70.3 ± 1.6% | 59 ± 1.81% | 47.1 ± 2.64% | – | –
CCC(C)C(=O)OC1C=C2C3C(C)C(C)(O)CC(OC(C)=O)C3(C)CCC2(C)C2(C)CC(OC(C)=O)C3C(C)(C)C(O)C(OC(C)=O)CC3(C)C12 (stereo not drawn) [Compound 1, 2α,6β,22α-triacetoxy-11α-(2-methylbutyryloxy)-urs-12-ene-3α,20β-diol] | 35.7 µg/mL | 95.55 ± 0.74% | 88.7 ± 0.93% | 78.5 ± 1.94% | 65.9 ± 1.21% | 51.1 ± 2.4% | 35.8 ± 1.32% | 22.2 ± 1.53% | 96.2 ± 1.04% | 90.7 ± 0.93% | 83.9 ± 1.67% | 74.8 ± 1.17% | 62.6 ± 1.36% | 45.7 ± 1.85% | 28.1 ± 2.31% | 35.65 µg/mL | 49.8 µM

Source: PMC8619920, “New Polyesterified Ursane Derivatives from Leaves of Maesa membranacea and Their Cytotoxic Activity” (Molecules, 2021)
